Patent US9840500B2, “Compounds as dual inhibitors of histone methyltransferases and DNA methyltransferases” (FUNDACIÓN PARA LA INVESTIGACIÓN MÉDICA APLICADA, priority 2014, dated 2017)
pIC50: −log10 of the molar value. Structures can show the parent of a compound that is named as a salt.

Key:
human G9a enzyme = biological target: T1, human G9a enzyme (Homo sapiens, UniProt Q96KQ7); experiment: G9a enzyme activity assay (TR-FRET); assay type: biochemical
T1 sequence (Q96KQ7 1-1210): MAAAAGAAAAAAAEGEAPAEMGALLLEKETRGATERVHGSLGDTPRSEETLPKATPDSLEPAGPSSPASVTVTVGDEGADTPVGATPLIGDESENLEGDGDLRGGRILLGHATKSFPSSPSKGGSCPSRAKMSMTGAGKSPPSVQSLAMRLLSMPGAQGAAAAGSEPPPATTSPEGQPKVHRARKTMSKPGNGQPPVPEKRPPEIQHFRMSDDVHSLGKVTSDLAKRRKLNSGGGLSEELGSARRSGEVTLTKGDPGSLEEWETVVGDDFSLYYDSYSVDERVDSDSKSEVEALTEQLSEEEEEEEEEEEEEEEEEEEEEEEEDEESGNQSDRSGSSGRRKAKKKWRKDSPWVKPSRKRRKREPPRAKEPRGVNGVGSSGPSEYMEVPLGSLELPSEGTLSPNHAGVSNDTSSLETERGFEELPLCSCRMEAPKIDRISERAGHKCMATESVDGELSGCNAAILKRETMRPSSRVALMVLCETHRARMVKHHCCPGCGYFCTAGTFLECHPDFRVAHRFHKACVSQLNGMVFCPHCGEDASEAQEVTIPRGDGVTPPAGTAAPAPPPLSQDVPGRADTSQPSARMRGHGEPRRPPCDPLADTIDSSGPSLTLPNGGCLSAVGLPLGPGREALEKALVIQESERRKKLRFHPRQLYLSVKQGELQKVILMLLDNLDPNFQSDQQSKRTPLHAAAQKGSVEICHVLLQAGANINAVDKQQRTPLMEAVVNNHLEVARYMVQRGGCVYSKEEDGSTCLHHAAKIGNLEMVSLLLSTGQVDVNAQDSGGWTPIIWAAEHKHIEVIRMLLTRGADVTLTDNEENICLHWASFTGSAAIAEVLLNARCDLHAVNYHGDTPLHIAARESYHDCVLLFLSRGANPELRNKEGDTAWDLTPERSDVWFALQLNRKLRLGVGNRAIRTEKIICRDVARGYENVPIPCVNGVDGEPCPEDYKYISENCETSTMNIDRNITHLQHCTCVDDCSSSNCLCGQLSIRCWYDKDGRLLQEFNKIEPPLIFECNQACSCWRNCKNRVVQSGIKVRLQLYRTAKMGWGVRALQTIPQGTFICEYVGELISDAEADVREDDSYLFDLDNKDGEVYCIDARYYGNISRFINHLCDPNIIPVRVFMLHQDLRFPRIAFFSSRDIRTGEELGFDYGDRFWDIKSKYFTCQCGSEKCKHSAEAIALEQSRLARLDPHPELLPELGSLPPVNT
Procedure: The biochemical assay to measure G9a enzyme activity relies on time-resolved fluorescence energy transfer (TR-FRET) between europium cryptate (donor) and XL665 (acceptor). […] The human G9a enzyme expressed in a baculovirus infected Sf9 cell expression system was obtained from BPS Biosciences (Cat. #51001). […] Final percentage of DMSO was 0.5%. • 2 μl of 1 nM G9a enzyme diluted in assay buffer. […] Final concentration 150 nM. • Then, add 5 μl of streptavidin XL665 beads. Final concentration of 16 μM. • Read the plate after 1 hour of incubation at room temperature.
(§1) For each well, fluorescence was measured at 620 nm and 665 nm. A ratio (665 nm/620 nm) was then calculated in order to minimize medium interferences. Positive control was obtained in the presence of the vehicle of the compounds. Negative control was obtained in the absence of G9a enzyme activity. Calculated IC50 values were determined using GraphPrism using 4-parameters inhibition curve.

DNMT1 = DNMT1 (Homo sapiens, UniProt P26358); experiment: DNMT1 enzyme activity assay (TR-FRET, EPIgeneous methyltransferase assay); assay type: biochemical
DNMT1, sequence (P26358 whole entry): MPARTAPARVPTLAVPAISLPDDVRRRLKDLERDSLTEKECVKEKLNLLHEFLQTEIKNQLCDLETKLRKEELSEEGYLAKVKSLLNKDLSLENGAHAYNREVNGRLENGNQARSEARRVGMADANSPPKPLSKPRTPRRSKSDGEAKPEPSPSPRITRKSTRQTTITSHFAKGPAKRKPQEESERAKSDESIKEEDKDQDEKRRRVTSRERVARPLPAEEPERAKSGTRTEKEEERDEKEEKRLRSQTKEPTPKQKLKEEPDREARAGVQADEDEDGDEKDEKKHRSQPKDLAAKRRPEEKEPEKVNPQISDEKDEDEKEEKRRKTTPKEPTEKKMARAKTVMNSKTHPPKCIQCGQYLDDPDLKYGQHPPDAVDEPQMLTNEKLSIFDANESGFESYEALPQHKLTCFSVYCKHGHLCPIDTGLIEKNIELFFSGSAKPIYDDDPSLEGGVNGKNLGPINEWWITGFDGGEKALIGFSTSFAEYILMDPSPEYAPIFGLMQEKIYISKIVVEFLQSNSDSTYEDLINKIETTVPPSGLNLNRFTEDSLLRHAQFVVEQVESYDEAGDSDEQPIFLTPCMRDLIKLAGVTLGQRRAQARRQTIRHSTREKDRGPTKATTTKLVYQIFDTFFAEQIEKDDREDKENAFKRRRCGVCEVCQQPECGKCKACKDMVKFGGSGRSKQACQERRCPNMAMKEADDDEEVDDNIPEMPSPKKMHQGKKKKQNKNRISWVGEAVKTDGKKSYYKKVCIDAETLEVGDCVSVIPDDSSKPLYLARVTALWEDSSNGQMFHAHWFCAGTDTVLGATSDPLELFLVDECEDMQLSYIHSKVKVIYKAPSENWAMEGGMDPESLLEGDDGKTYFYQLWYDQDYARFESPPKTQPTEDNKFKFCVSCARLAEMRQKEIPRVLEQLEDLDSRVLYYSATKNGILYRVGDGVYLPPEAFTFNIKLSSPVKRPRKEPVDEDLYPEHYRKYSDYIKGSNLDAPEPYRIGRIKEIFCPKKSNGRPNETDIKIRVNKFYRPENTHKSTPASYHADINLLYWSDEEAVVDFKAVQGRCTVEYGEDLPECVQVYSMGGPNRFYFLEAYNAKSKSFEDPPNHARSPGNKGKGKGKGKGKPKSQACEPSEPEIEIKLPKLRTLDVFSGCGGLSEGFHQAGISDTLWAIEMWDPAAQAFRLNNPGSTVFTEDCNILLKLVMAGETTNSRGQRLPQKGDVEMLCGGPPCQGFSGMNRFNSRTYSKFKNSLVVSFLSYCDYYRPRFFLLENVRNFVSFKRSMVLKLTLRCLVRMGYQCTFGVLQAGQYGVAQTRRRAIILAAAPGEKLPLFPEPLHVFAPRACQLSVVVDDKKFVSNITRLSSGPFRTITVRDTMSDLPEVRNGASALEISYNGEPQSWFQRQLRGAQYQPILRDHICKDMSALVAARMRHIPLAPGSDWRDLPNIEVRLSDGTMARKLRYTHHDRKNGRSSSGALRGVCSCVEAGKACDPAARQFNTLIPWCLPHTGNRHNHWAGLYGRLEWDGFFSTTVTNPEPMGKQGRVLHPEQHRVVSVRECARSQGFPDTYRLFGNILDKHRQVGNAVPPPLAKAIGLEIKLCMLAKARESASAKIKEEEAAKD
Procedure: The biochemical assay to measure DNMT1 enzyme activity relies on time-resolved fluorescence energy transfer (TR-FRET) between lumi4-Tb (donor) and d2 (acceptor) using the EPIgeneous methyltransferase assay (CisBio Cat#62SAHPEB). […] TR-FRET signal is inversely proportional to the concentration of SAH, product of DNMT1 enzyme activity, in the sample.
The human DNMT1 was obtained from Reaction Biology Corp. (Cat# DMT-21-124). […] Final percentage of DMSO was 0.5%. • 2 μl of 1 nM DNMT1 enzyme diluted in assay buffer.
as §1

## Cc1ccc(-c2cc(NC3CCN(C)CC3)c3cc(OCC(F)(F)F)c(OCCCN4CCCC4)cc3n2)o1 [Compound 13-01, 2-(5-methyl-2-furyl)-N-(1-methyl-4-piperidyl)-7-(3-pyrrolidin-1-ylpropoxy)-6-(2,2,2-trifluoroethoxy)quinolin-4-amine; 2,2,2-trifluoroacetic acid]
Human G9a enzyme
  pIC50: 6.00 to 6.30
DNMT1
  pIC50: 6.00 to 6.30

## COc1cc2c(NC3CCN(C)CC3)cc(-c3cc(C)oc3C)nc2cc1OCCCN1CCCC1 [Compound 3-35]
Human G9a enzyme
  pIC50: > 7.00
DNMT1
  pIC50: 6.00 to 6.30

## COc1cc2c(NC3CCN(C)CC3)cc(C3CCCCC3)nc2cc1OCCCN1CCCC1 [Compound 7-01, 2-cyclohexyl-6-methoxy-N-(1-methyl-4-piperidyl)-7-(3-pyrrolidin-1-ylpropoxy)quinolin-4-amine; 2,2,2-trifluoroacetic acid]
Human G9a enzyme
  pIC50: > 7.00
DNMT1
  pIC50: 6.30 to 7.00

## CCNCc1ccc(-c2cc(NC3CCN(C)CC3)c3cc(OC)c(OCCCN4CCCC4)cc3n2)o1 [Compound 8-02]
Human G9a enzyme
  pIC50: > 7.00
DNMT1
  pIC50: 6.00 to 6.30

## COc1cc2c(NC3CCN(C)CC3)cc(-c3cc[nH]c(=O)c3)nc2cc1OCCCN1CCCC1 [Compound 3-37]
Human G9a enzyme
  pIC50: 6.30 to 7.00
DNMT1
  pIC50: 5.00 to 6.00

## COc1cc2c(NC3CC4(CCNCC4)C3)cc(-c3ccc(C)[nH]3)nc2cc1OCC1CCNCC1 [Compound 11-09]
Human G9a enzyme
  pIC50: 6.30 to 7.00
DNMT1
  pIC50: 6.30 to 7.00

## COc1cc2c(NC3CC3)cc(-c3ccc(C)[nH]3)nc2cc1OCC1CCNCC1 [Compound 11-08]
Human G9a enzyme
  pIC50: 5.00 to 6.00
DNMT1
  pIC50: 5.00 to 6.00

## COc1cc2c(NC3CCNCC3)cc(C3CCCCC3)nc2cc1OCCCN1CCCC1 [Compound 7-04, 2-cyclohexyl-6-methoxy-N-(4-piperidyl)-7-(3-pyrrolidin-1-ylpropoxy)quinolin-4-amine; 2,2,2-trifluoroacetic acid]
Human G9a enzyme
  pIC50: > 7.00
DNMT1
  pIC50: 6.00 to 6.30

## COc1cc2c(NC3CCN(C)CC3)cc(-c3ccc(CN(C)C)o3)nc2cc1OCCCN1CCCC1 [Compound 8-01, 2-[5-[(dimethylamino)methyl]-2-furyl]-6-methoxy-N-(1-methyl-4-piperidyl)-7-(3-pyrrolidin-1-ylpropoxy)quinolin-4-amine; 2,2,2-trifluoroacetic acid]
Human G9a enzyme
  pIC50: 6.30 to 7.00
DNMT1
  pIC50: 5.00 to 6.00

## COCCNc1cc(-c2ccc(C)o2)nc2cc(OCCCN3CCCC3)c(OC)cc12 [Compound 3-12]
Human G9a enzyme
  pIC50: 6.30 to 7.00
DNMT1
  pIC50: 5.00 to 6.00

## COc1cc2c(NC3CCN(C)C(=O)C3)cc(-c3ccc(C)[nH]3)nc2cc1OCC1CCNCC1 (stereo not shown) [Compound 11-11]
Human G9a enzyme
  pIC50: 6.00 to 6.30
DNMT1
  pIC50: 6.00 to 6.30

## COc1cc2c(NCC3CCCC3)cc(-c3ccc(C)o3)nc2cc1OCCCN1CCCC1 [Compound 3-14]
Human G9a enzyme
  pIC50: 5.00 to 6.00
DNMT1
  pIC50: 5.00 to 6.00

## COc1cc2c(NC3CCN(C)CC3)cc(-c3ccc(CO)o3)nc2cc1OCCCN1CCCC1 [Compound 9-01, [5-[6-methoxy-4-[(1-methyl-4-piperidyl)amino]-7-(3-pyrrolidin-1-ylpropoxy)-2-quinolyl]-2-furyl]methanol; 2,2,2-trifluoroacetic acid]
Human G9a enzyme
  pIC50: > 7.00
DNMT1
  pIC50: 6.00 to 6.30

## COc1cc2c(NCCC(F)(F)F)cc(-c3ccc(C)o3)nc2cc1OCCCN1CCCC1 [Compound 3-11]
Human G9a enzyme
  pIC50: 6.30 to 7.00
DNMT1
  pIC50: 5.00 to 6.00

## COc1cc2c(NC3CCOCC3)cc(-c3ccc(C)o3)nc2cc1OCCCN1CCCC1 [Compound 3-16]
Human G9a enzyme
  pIC50: 6.30 to 7.00
DNMT1
  pIC50: 5.00 to 6.00

## COc1cc2c(NC3CCN(C)CC3)cc(-c3ccccc3C)nc2cc1OCCCN1CCCC1 [Compound 3-34]
Human G9a enzyme
  pIC50: > 7.00
DNMT1
  pIC50: 5.00 to 6.00

## COc1cc2c(NC3CCN(C)CC3)cc(C3CCC(C)O3)nc2cc1OCCCN1CCCC1 (stereo not shown) [Compound 15-01, 6-methoxy-N-(1-methyl-4-piperidyl)-2-(5-methyltetrahydrofuran-2-yl)-7-(3-pyrrolidin-1-ylpropoxy)quinolin-4-amine; 2,2,2-trifluoroacetic acid]
Human G9a enzyme
  pIC50: > 7.00
DNMT1
  pIC50: 5.00 to 6.00

## CCc1ccc(-c2cc(NC3CCN(C)CC3)c3cc(OC)c(OCC4CCNCC4)cc3n2)o1 [Compound 11-03]
Human G9a enzyme
  pIC50: 5.00 to 6.00
DNMT1
  pIC50: 6.00 to 6.30

## COc1cc2c(NC3CCN(C)CC3)cc(-c3ccn(C)n3)nc2cc1OCCCN1CCCC1 [Compound 3-33]
Human G9a enzyme
  pIC50: > 7.00
DNMT1
  pIC50: 5.00 to 6.00

## COc1cc2c(NC3CCN(C)CC3)cc(-c3ccc(C#N)o3)nc2cc1OCCCN1CCCC1 [Compound 10-01, 5-[6-methoxy-4-[(1-methyl-4-piperidyl)-amino]-7-(3-pyrrolidin-1-ylpropoxy)-2-quinolyl]furan-2-carbonitrile; 2,2,2-trifluoroacetic acid]
Human G9a enzyme
  pIC50: 6.30 to 7.00
DNMT1
  pIC50: 5.00 to 6.00

## COc1cc2c(NC3CCN(C)CC3)cc(-c3cccnc3)nc2cc1OCCCN1CCCC1 [Compound 3-30]
Human G9a enzyme
  pIC50: > 7.00
DNMT1
  pIC50: 5.00 to 6.00

## COc1cc2c(NC3CCN(C)CC3)cc(C3=CCOCC3)nc2cc1OCCCN1CCCC1 [Compound 6-02]
Human G9a enzyme
  pIC50: > 7.00
DNMT1
  pIC50: 6.00 to 6.30

## COc1cc2c(NC3CCNC(=O)C3)cc(-c3ccc(C)o3)nc2cc1OCCCN1CCCC1 (stereo not shown) [Compound 3-18]
Human G9a enzyme
  pIC50: 6.30 to 7.00
DNMT1
  pIC50: 5.00 to 6.00

## COc1cc2c(NC3CCC(C)(O)CC3)cc(-c3ccc(C)o3)nc2cc1OCCCN1CCCC1 (stereo not shown) [Compound 3-45]
Human G9a enzyme
  pIC50: 6.30 to 7.00
DNMT1
  pIC50: 5.00 to 6.00

## COc1cc2c(NC3CCN(C)CC3)cc(C)nc2cc1OCCCN1CCCC1 [Compound 3-23]
Human G9a enzyme
  pIC50: > 7.00
DNMT1
  pIC50: 6.00 to 6.30

## COc1cc2c(NC3CCN(C)CC3)cc(-c3ccc(-c4ccccc4)o3)nc2cc1OCCCN1CCCC1 [Compound 3-32]
Human G9a enzyme
  pIC50: 5.00 to 6.00
DNMT1
  pIC50: 5.00 to 6.00

## COc1cc(NC2CCN(C)CC2)c2cc(OC)c(OCCCN3CCCC3)cc2n1 [Compound 2-01]
Human G9a enzyme
  pIC50: 6.30 to 7.00
DNMT1
  pIC50: 5.00 to 6.00

## COc1cc2c(NC3CC4(CCNCC4)C3)cc(-c3ccc(C)[nH]3)nc2cc1OCCCN1CCCC1 [Compound 4-02, N-(7-azaspiro[3.5]nonan-2-yl)-6-methoxy-2-(5-methyl-1H-pyrrol-2-yl)-7-(3-pyrrolidin-1-ylpropoxy)quinolin-4 amine; hydrochloride]
Human G9a enzyme
  pIC50: > 7.00
DNMT1
  pIC50: 5.00 to 6.00

## COc1cc2c(NC3CC4(CCNCC4)C3)cc(-c3ccc(C)o3)nc2cc1OCC1CCNCC1 [Compound 11-10]
Human G9a enzyme
  pIC50: 5.00 to 6.00
DNMT1
  pIC50: 6.30 to 7.00

## CCc1ccc(-c2cc(NC3CCC34CCN(C3CC3)CC4)c3cc(OC)c(OCCCN4CCCC4)cc3n2)o1 (stereo not shown) [Compound 19-02, N-(7-cyclopropyl-7-azaspiro[3.5]nonan-3-yl)-2-(5-ethyl-2-furyl)-6-methoxy-7-(3-pyrrolidin-1-ylpropoxy)quinolin-4-amine; 2,2,2-trifluoroacetic acid]
Human G9a enzyme
  pIC50: 6.00 to 6.30
DNMT1
  pIC50: 6.30 to 7.00

## COc1cc2c(NCC3CCN(C)C(=O)C3)cc(-c3ccc(C)[nH]3)nc2cc1OCC1CCNCC1 (stereo not shown) [Compound 11-07]
Human G9a enzyme
  pIC50: 6.00 to 6.30
DNMT1
  pIC50: 6.00 to 6.30

## COc1cc2c(NC3CCN(C)CC3)cc(-c3cc4ccccc4o3)nc2cc1OCCCN1CCCC1 [Compound 3-25]
Human G9a enzyme
  pIC50: 5.00 to 6.00
DNMT1
  pIC50: 5.00 to 6.00

## COc1cc2c(NC3CCN(C)CC3)cc(-c3ccc(C)o3)nc2cc1OC1CCN(C(=O)OC(C)(C)C)CC1 [Compound 19-03]
Human G9a enzyme
  pIC50: 5.00 to 6.00
DNMT1
  pIC50: 5.00 to 6.00

## COc1cc2c(NC3CCN(C)CC3)cc(N3CCN(C)CC3)nc2cc1OCCCN1CCCC1 [Compound 1-02]
Human G9a enzyme
  pIC50: > 7.00
DNMT1
  pIC50: 6.00 to 6.30

## COc1cc2c(NCC3CCN(C)CC3)cc(-c3ccc(C)[nH]3)nc2cc1OCC1CCNCC1 [Compound 11-06]
Human G9a enzyme
  pIC50: 6.30 to 7.00
DNMT1
  pIC50: 6.30 to 7.00
